Several values for one entry are separate records, joined by “and”; a condition that tells them apart may be missing. Equal values may be shown once.
Assays:
[1] = target: T1, LspMrs (lipoprotein signal peptidase II from methicillin-resistant Staphylococcus aureus) (Staphylococcus aureus, UniProt Q6GHN9); test: FRET lipopeptide peptidase assay, LspMrs; assay type: biochemical; conditions: for IC50: IC50, FRET, 0.3 µM enzyme, 80 µM substrate, initial rates; for Rate (RFU/min): replicates 1 and 2
T1 construct: MGSS-hexahistidine-SSGR-TEV site (ENLYFQ) (N, cleaved yes); made in house; host or cells: E. coli C43 (DE3)
Procedure: FRET activity assays. A FRET based assay was developed using a labelled lipopeptide substrate (Supplementary Methods, Supplementary Fig. 3b) to directly monitor the protease activity of LspA. The optimised LspMrs assay buffer included 100 mM Tris/HCl pH 7.8, 150 mM NaCl and 0.09%(w/v) DDM. The corresponding optimized buffer for LspPae included 100 mM MES/NaOH pH 5.6, 150 mM NaCl and 0.05%(w/v) LMNG. All assays were performed at 37 °C.
Reaction mixtures were prepared by pipetting the FRET lipopeptide substrate (dissolved in DMSO) directly into assay buffer at a final concentration of 80 µM. Reaction mixtures were prepared by vortexing (Clifton, cyclone CM-1) for 2 s and incubated at 37 °C, 800 rpm for 10 to 30 min. Equal volumes of the reaction mixture were pipetted into 1.5 mL Eppendorf tubes and 0 to 150 µM globomycin or myxovirescin (in DMSO) added. For dose-response assays, the final DMSO concentration in all reactions was 10%(v/v). Reaction mixtures were pipetted into wells of a 96- (Thermo Scientific) or a 384-well plate (4titude®) and incubated for 10 min at 37 °C in a SpectraMax M3 or a SpectraMax M5e plate reader (Molecular devices) prior to starting the assay. Assays were initiated by adding enzyme to a final concentration in the range 10–300 nM. Total reaction mixture volume was 50 μL. Reactions were monitored by fluorescence (Ex/Em, 320 nm/420 nm) for 30 to 60 min at 37 °C. Initial rates were calculated from the fluorescence intensity versus time progress curves (Supplementary Figs. 5 and 6). Occasionally, lag periods in the progress curves were observed (Supplementary Discussion). In such cases, initial rates were calculated after the lag period had passed (typically 1–5 min) and a steady rate had been established. Dose-response plots to determine IC50 values were generated using Prism® 5 software from GraphPad.
It was possible to convert units of fluorescence change into moles of substrate consumed or products formed because pure products of LspA action on Abz-LALAGC*SS-nY-NH2 had been synthesized and were available. These were used to create a standard curve of fluorescence versus moles of the two products in equimolar amounts and to calculate specific activity values.

[2] = target: T1, LspMrs (lipoprotein signal peptidase II from methicillin-resistant Staphylococcus aureus); test: Coupled gel-shift peptidase assay with proICP substrate, LspMrs WT; assay type: biochemical; conditions: proICP substrate (12 µM pre-proICP), 0.5 µM enzyme, 30 min
Source text: (§1) The peptidase activity of LspMrs and P. aeruginosa LspA (LspPae) was quantified in a coupled gel-shift assay developed previously for LspPae[5]. The P. aeruginosa lipoprotein pre-proICP and the first two enzymes in the bacterial lipoprotein processing pathway Lgt and LspA were expressed and purified, as described. For FRET assays LspMrs was expressed and purified as described above and LspPae was expressed and purified as described in a published protocol.
Gel-shift activity assay. For time course assays, reactions were set up containing 12 µM pre-proICP, 250 µM DOPG (Avanti Polar Lipids, Inc.) and 1.2 µM Lgt in Buffer E (50 mM Tris/HCl pH 7.5, 150 mM NaCl, 1 mM DTT, 0.02%(w/v) LMNG). The assay mixtures were incubated at 37 °C and 200 rpm for 60 min to allow Lgt catalysed conversion of pre-proICP to the LspA substrate proICP. The LspA reaction was initiated by adding 0.5 µM LspA directly to the assay mixture. At timed intervals, 20 µL samples were removed and the reaction was stopped by adding 10 µL of 4x SDS loading buffer (62.5 mM Tris/HCl pH 6.8, 2.5%(w/v) SDS, 0.002%(w/v) bromophenol blue, 0.5 M β-mercaptoethanol, 10%(v/v) glycerol). To compare the activity of wild-type and mutant LspMrs, assays were allowed to proceed for 30 min before being stopped with SDS loading buffer. […] Band intensities of ICP were quantified using Image Lab. […]

LspMrs R110K = target: T2, LspMrs R110K (Staphylococcus aureus, UniProt Q6GHN9, R110K); test: Gel-shift peptidase assay, LspMrs R110K mutant; assay type: biochemical, methicillin-resistant Staphylococcus aureus
T2 construct: MGSS-hexahistidine-SSGR-TEV site (ENLYFQ) (N, cleaved yes); made in house; host or cells: E. coli C43 (DE3)
Procedure: (§2) LspA mutant genes (N52A, N52Q, G54A, G54P, R110A, R110K, D118N, N133A, N133Q and D136N) were obtained by site-directed mutagenesis of the wild-type lspA construct in pETDuet. Mutagenesis was performed using the Q5® Site-Directed Mutagenesis Kit (New England Biolabs) and specific primers are listed in Supplementary Table 5. The correct mutations were confirmed by sequencing (Eurofins Genomics). Expression and purification of all LspMrs wild-type and mutants for enzyme assays were performed as described above with the following modifications: TALON® Metal Affinity Resin (Clontech) was used for IMAC purification and the detergent DDM was used for membrane solubilisation and protein purification.
as §1
(§3) Gel-shift activity assay. […] Band intensities of ICP were quantified using Image Lab. […]

LspMrs G54A = target: T3, LspMrs G54A (Staphylococcus aureus, UniProt Q6GHN9, G54A); test: Gel-shift peptidase assay, LspMrs G54A mutant; assay type: biochemical, methicillin-resistant Staphylococcus aureus
T3 construct: MGSS-hexahistidine-SSGR-TEV site (ENLYFQ) (N, cleaved yes); made in house; host or cells: E. coli C43 (DE3)
Procedure: as §2, §1, §3

LspMrs N52Q = target: T4, LspMrs N52Q (Staphylococcus aureus, UniProt Q6GHN9, N52Q); test: Gel-shift peptidase assay, LspMrs N52Q mutant; assay type: biochemical, methicillin-resistant Staphylococcus aureus
T4 construct: MGSS-hexahistidine-SSGR-TEV site (ENLYFQ) (N, cleaved yes); made in house; host or cells: E. coli C43 (DE3)
Procedure: as §2, §1, §3

SMILES | IC50 [1] | Rate (RFU/min) ([1]; LspMrs + Globomycin, log [globomycin] (µM) 0.00) | Rate (RFU/min) ([1]; LspMrs + Globomycin, log [globomycin] (µM) -0.30) | Rate (RFU/min) ([1]; LspMrs + Globomycin, log [globomycin] (µM) -0.52) | Rate (RFU/min) ([1]; LspMrs + Globomycin, log [globomycin] (µM) -0.70) | Rate (RFU/min) ([1]; LspMrs + Globomycin, log [globomycin] (µM) -1.00) | Rate (RFU/min) ([1]; LspMrs + Globomycin, log [globomycin] (µM) -2.00) | Rate (RFU/min) ([1]; LspMrs + Globomycin, log [globomycin] (µM) -3.00) | IC50 [2] [µM] | IC50 (LspMrs R110K) [µM] | IC50 (LspMrs G54A) [µM] | IC50 (LspMrs N52Q) [µM] | Rate (RFU/min) ([1]; LspMrs + Myxovirescin, log [myxovirescin] (µM) 0.00) | Rate (RFU/min) ([1]; LspMrs + Myxovirescin, log [myxovirescin] (µM) -0.30) | Rate (RFU/min) ([1]; LspMrs + Myxovirescin, log [myxovirescin] (µM) -0.52) | Rate (RFU/min) ([1]; LspMrs + Myxovirescin, log [myxovirescin] (µM) -0.70) | Rate (RFU/min) ([1]; LspMrs + Myxovirescin, log [myxovirescin] (µM) -1.00) | Rate (RFU/min) ([1]; LspMrs + Myxovirescin, log [myxovirescin] (µM) -2.00) | Rate (RFU/min) ([1]; LspMrs + Myxovirescin, log [myxovirescin] (µM) -3.00)
CCCCCC[C@H]1OC(=O)CNC(=O)[C@H]([C@H](C)O)NC(=O)[C@H](CO)NC(=O)[C@H]([C@H](C)CC)NC(=O)[C@H](CC(C)C)N(C)C(=O)[C@@H]1C [globomycin] | 0.17 µM and 0.167 µM | 0 | 0 | 0.33 RFU/min and 0.27 RFU/min | 0.64 RFU/min and 0.57 RFU/min | 1.06 RFU/min and 1.05 RFU/min | 1.47 RFU/min and 1.55 RFU/min | 1.53 RFU/min and 1.49 RFU/min | 171 | 1.73 ± 0.1 | 1.78 ± 0.25 | 2.43 ± 0.34 |  |  |  |  |  |  | 
CCCC1OC(=O)C(C)CC(C)CCCCC(=O)CCCC(CC)C=CC=C(COC)CCC(O)C(O)CC(O)CNC1=O (stereo not drawn) [myxovirescin, myxovirescin A1] | 0.151 µM |  |  |  |  |  |  |  | 0.16 | 0.4 ± 0.03 | 0.57 ± 0.01 | 0.29 ± 0.08 | 0 | 0 | 0 RFU/min and 0.13 RFU/min | 0.55 RFU/min and 0.58 RFU/min | 1.04 | 1.47 RFU/min and 1.55 RFU/min | 1.49 RFU/min and 1.52 RFU/min

From article PMC6952399, “Structures of lipoprotein signal peptidase II from Staphylococcus aureus complexed with antibiotics globomycin and myxovirescin” (Nature Communications, 2020)
